Patent US4943574A, “(1H-azol-1-ylmethyl) substituted benzotriazole derivatives and pharmaceutical compositions containing them” (Janssen Pharmaceutica N.V., priority 1989, dated 1990)

Legend:
aromatase [1] = conditions: reported in Biochemical Pharmacology, 34, 1087 (1985); cited from earlier work
aromatase [2] = biological target: T1, aromatase (Homo sapiens, UniProt P11511); assay: biochemical; conditions: human placental microsomes, 30 min at 37° C., pH 7.4, 1,2[3H]androstenedione; read-out: IC50-values (concentration of the compound required to obtain 50% inhibition of the estrogen synthesis)
T1 sequence (P11511 1-503): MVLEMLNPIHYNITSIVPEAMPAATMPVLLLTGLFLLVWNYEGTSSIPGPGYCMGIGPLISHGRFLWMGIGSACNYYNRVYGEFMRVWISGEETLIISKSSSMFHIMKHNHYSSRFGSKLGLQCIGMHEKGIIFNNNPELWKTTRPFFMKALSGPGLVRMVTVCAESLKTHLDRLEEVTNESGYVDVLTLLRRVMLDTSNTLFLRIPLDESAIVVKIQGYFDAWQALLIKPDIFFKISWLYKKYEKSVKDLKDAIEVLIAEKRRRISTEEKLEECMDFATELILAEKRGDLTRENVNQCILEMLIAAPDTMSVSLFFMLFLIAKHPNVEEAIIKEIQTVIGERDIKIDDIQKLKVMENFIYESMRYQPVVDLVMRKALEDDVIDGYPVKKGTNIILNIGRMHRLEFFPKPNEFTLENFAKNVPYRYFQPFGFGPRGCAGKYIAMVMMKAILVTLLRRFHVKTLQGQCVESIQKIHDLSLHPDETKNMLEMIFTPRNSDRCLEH
Procedure: Human placental microsomes were diluted in potassium phosphate buffer (0.1M, pH 7.4) to give about 50% conversion of androgens to estrogens (protein content: about 0.5 mg). Four ml human placental microsomes were incubated in a final volume of 5 ml with 0.2 μCi1,2[3H]-androstenedione, 2 μg androstendione and 5 μl of test compound and/or dimethyl sulfoxide (DMSO). […] The reaction was initiated by the addition of androstenedione and proceeded for 30 min at 37° C. During the incubation period, the mixtures were gassed with air. In this assay, aromatization of androstenedione results in the production of [3H]-H2 O which is isolated by extracting the samples with chloroform to remove the free steroid.

aromatase [3] = assay: In vivo-inhibition of the aromatase activity (plasma estradiol in PMSG-injected immature female Wistar rats); parameters: species or system rat (immature female Wistar rats); conditions: 1 mg/kg oral gavage, two hours following administration, PMSG-injected immature female Wistar rats
Procedure: Immature female Wistar rats weighing 120 g were injected subcutaneously with 200 I.U. of pregnant mare's serum gonadotropin (PMSG). […] Control animals received 20% polyethyleneglycol only. Two hours following drug or placebo administration the rats were killed by decapitation and trunk blood was collected on heparine. Plasma estradiol concentrations were measured by standard radio-immunological procedures.

| SMILES | IC50 (aromatase [2]) [nM] | inhibition of the action of the enzyme aromatase (in words) (aromatase [1]) | % recovery estradiol (plasma estradiol relative to the controls) (aromatase [3]) [%] |
| --- | --- | --- | --- |
| Clc1ccc(COC(Cn2ccnc2)c2ccc(Cl)cc2Cl)c(Cl)c1 (centres unmarked) [miconazole] | – | inhibit the action of the enzyme aromatase | – |
| Clc1ccccc1C(c1ccccc1)(c1ccccc1)n1ccnc1 [clotrimazole] | – | inhibit the action of the enzyme aromatase | – |
| c1ccc(CCn2nnc3ccc(Cn4ccnc4)cc32)cc1 [Compound 92] | 8.7 | – | 15 |
| CC(=O)N1CCN(c2ccc(OCC3COC(Cn4ccnc4)(c4ccc(Cl)cc4Cl)O3)cc2)CC1 (centres unmarked) [ketoconazole] | – | inhibit the action of the enzyme aromatase | – |
| Cn1nnc2ccc(C(c3ccc(Cl)cc3)n3ccnc3)cc21 (centres unmarked) [Compound 48] | 16.6 | – | 6 |
| CCCCCOn1nnc2ccc(Cn3ccnc3)cc21 [Compound 201] | 6.7 | – | 19 |
| Cn1nnc2ccc(C(c3cccc(F)c3)n3ccnc3)cc21 (centres unmarked) [Compound 33] | 24.6 | – | 5 |
| c1ccc2c(c1)CCC2n1nnc2ccc(Cn3ccnc3)cc21 (centres unmarked) [Compound 115] | 14.4 | – | 22 |

Continued, in another order:

| IC50 (aromatase [2]) [nM] | SMILES | inhibition of the action of the enzyme aromatase (in words) (aromatase [1]) | % recovery estradiol (plasma estradiol relative to the controls) (aromatase [3]) [%] |
| --- | --- | --- | --- |
| 17.4 | CCC(C)n1nnc2ccc(Cn3ccnc3)cc21 (centres unmarked) [Compound 101] | – | 7 |
| 12 | CC(C)On1nnc2ccc(Cn3ccnc3)cc21 [Compound 195, 6-(1H-imidazol-1-ylmethyl)-1-(1-methylethoxy)-1H-benzotriazole] | – | 19 |
| 15.9 | Cn1nnc2ccc(C(c3ccc(F)cc3)n3ccnc3)cc21 (centres unmarked) [Compound 29] | – | 7 |
| 7.1 | CCCCCCOn1nnc2ccc(Cn3ccnc3)cc21 [Compound 202] | – | 21 |
| 9.2 | BrCCOn1nnc2ccc(Cn3ccnc3)cc21 [Compound 204] | – | 19 |
| 10.5 | CC(C)CCn1nnc2ccc(Cn3ccnc3)cc21 [Compound 93] | – | 8 |
| 7.3 | c1ccc(CCCOn2nnc3ccc(Cn4ccnc4)cc32)cc1 [Compound 207] | – | 26 |
| 31.7 | CCn1nnc2ccc(Cn3ccnc3)cc21 [Compound 102] | – | 2 |
